Laboratory results from patent US7728042B2, “Transdermal pharmaceutical composition” (Richter Gedeon Vegyeszeti Gyar RT, priority 2003, dated 2010).

Tests used:
[1] = Active agent release, Microette Hanson vertical diffusion cell, hydrophilic membrane soaked with water; details: for Release kinetics of the active agent: liquid crystal transdermal gel, Q=Q0+nt^0.5
[2] = oral administration; cited from earlier work
[3] = Active agent release, Microette Hanson vertical diffusion cell, lipophilic membrane soaked with isopropyl myristate; details: release from liquid crystal gel, FIGS. 7-14

Row | Compound | Release kinetics of the active agent [1] | also measured
1 | CN(C/C=C/C#CC(C)(C)C)Cc1cccc2ccccc12 [Terbinafine, N-(6,6-dimethyl-2-heptene-4-inyl)-N-methyl-(E)-naphtal-1-en-methan-amine] | generally follows the Higuchi-like relationship | –
2 | CCOC(=O)C1=C[C@]2(CC)CCCN3CCc4c(n1c1ccccc41)[C@@H]32 [vinpocetine, (3α,16α)-eburnamenine-14-carboxylic acid ethylester] | – | Bioavailability [2]: 6-8%
3 | Cc1ncc([N+](=O)[O-])n1CCO [Metronidazole, 1-(2-hydroxy-1-ethyl)-2-methyl-5-nitro-imidazol] | generally follows the Higuchi-like relationship | –
4 | Cc1nccn1CC1CCc2c(c3ccccc3n2C)C1=O (stereo not shown) [Ondansetron, 1,2,3,9-tetrahydro-9-methyl-3-[(2-methyl-1H-imidazol-1-il)-methyl]-4H-karbazol-4-on] | generally follows the Higuchi-like relationship | –
5 | CNC1(c2ccccc2Cl)CCCCC1=O (stereo not shown) [Ketamine, 2-(2-chloro-phenyl)-2-(methyl-amino)-cyclohexanon] | generally follows the Higuchi-like relationship | Active agent release in 4 hours, Hydrophilic membrane ([1]; liquid crystal gel with low molecular weight sodium-hyaluronate, ondansetron 1.2%, terbinafine 2.0%, metronidazole 0.9%, eperisone 0.8%, tolperisone 1.0%, ketamine 1.0%): 9.73 μg/cm^2; Crossing of the hydrophilic membrane ([1]; release from liquid crystal gel, FIGS. 7-14): cross the hydrophilic membrane quickly and effectively; Crossing of the membrane impregnated with lipophilic fluid [3]: do not cross the membrane impregnated with lipophilic fluid
6 | Cc1ccc(C(=O)C(C)CN2CCCCC2)cc1 (stereo not shown) [Tolperisone, 1-piperidino-2-methyl-3-(p-tolyl)-3-propanon] | generally follows the Higuchi-like relationship | –
7 | CCc1ccc(C(=O)C(C)CN2CCCCC2)cc1 (stereo not shown) [Eperisone, 1-(4-ethyl-phenyl)-2-methyl-3-(1-piperidinyl)-1-propanon] | generally follows the Higuchi-like relationship | –
